Each structure is given as a SMILES string. Values after ≈ are worked out from the molar mass of the structure shown.

This assay relates to Leishmania donovani. Put plainly: Antileishmanial activity against promastigote form of Leishmania donovani after 48 hrs by Alamar Blue assay. Format: functional, organism-based.
Consider `C/C(=C\CO)CC(C)CC(C)CCCCCCCCC(C)C` (configuration not stated), for which the IC50 was 9 µg/mL (≈ 29 µM) and the 90% effect level (IC90) was put at 30 µg/mL (≈ 96.6 µM).
Taken in the same sequence, the figures for `CC(=O)OC/C=C(\C)CC(C)CC(C)CCCCCCCCC(C)C` (configuration not stated) were 2 µg/mL (≈ 5.67 µM) and 6 µg/mL (≈ 17 µM).
`C[C@@H]1[C@H](O)[C@@H](C)/C=C/C=C/C=C/C=C/C=C/C=C/C=C/[C@H](O[C@@H]2O[C@H](C)[C@@H](O)[C@H](N)[C@@H]2O)C[C@@H]2O[C@](O)(C[C@@H](O)C[C@@H](O)[C@H](O)CC[C@@H](O)C[C@@H](O)CC(=O)O[C@H]1C)C[C@H](O)[C@H]2C(=O)O` [AMPHOTERICIN B] registered an IC50 of 0.47 µg/mL (≈ 0.509 µM) and an IC90 of 0.65 µg/mL (≈ 0.703 µM).
In the case of `N=C(N)c1ccc(OCCCCCOc2ccc(C(=N)N)cc2)cc1` [PENTAMIDINE], the IC90 is 2.03 µg/mL (≈ 5.96 µM).
